Results from patent US9694016B2 (Novartis AG, priority 2013, dated 2017).
Where two headings read alike, the source gives them in different places.

Target: b-Raf (V600E) (Homo sapiens (Human), UniProt P15056, V600E)
Settings: read-out: b-Raf IC-50, AlphaScreen
[1] = 60 min pre-incubation, reaction 3 hours at room temperature
[2] = 60 min pre-incubation, 3 hours reaction

Sequence of b-Raf (V600E) (P15056 whole entry V600E): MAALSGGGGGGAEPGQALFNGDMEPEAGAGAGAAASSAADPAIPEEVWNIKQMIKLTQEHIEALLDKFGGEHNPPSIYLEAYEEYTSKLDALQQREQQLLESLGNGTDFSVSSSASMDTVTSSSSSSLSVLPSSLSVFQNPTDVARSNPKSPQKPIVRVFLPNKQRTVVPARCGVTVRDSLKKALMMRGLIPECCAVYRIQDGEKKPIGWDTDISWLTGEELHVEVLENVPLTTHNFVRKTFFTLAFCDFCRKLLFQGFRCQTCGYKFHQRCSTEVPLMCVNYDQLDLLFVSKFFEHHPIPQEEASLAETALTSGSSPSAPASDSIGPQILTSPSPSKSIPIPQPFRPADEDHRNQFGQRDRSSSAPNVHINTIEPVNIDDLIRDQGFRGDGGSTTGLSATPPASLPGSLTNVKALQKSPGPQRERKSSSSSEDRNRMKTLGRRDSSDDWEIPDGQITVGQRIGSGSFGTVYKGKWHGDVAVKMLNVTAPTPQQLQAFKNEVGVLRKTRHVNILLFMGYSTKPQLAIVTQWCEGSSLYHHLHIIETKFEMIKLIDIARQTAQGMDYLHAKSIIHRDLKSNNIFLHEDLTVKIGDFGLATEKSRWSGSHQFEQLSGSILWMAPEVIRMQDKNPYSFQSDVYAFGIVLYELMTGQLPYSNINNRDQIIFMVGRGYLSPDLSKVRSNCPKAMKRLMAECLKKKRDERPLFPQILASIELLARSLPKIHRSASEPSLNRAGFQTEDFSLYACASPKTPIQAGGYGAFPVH

Row | Structure (SMILES) | IC50 [1] | IC50 [2] | further results
1 | CCn1cc(C(=O)Nc2ccc(C)c(-c3cc(N4CCOCC4)nc(N4CC(O)C4)c3)c2)cc(C(F)(F)F)c1=O [Example 1061, 1-ethyl-N-(3-(2-(3-hydroxyazetidin-1-yl)-6-morpholinopyridin-4-yl)-4-methylphenyl)-6-oxo-5-(trifluoromethyl)-1,6-dihydropyridine-3-carboxamide] | 3.05 nM |  | 
2 | Cc1ncc(NC(=O)c2cccc(C(F)(F)F)c2)cc1-c1cnc(OC(F)F)c(N2CCOCC2)c1 [Example 224, N-(6′-(difluoromethoxy)-2-methyl-5′-morpholino-[3,3′-bipyridin]-5-yl)-3-(trifluoromethyl)benzamide] |  |  | IC50 (Table 2, 3 hours reaction): 2.7 nM
3 | Cc1ccc(NC(=O)c2cnnc(C(C)(C)C#N)c2)cc1-c1cc(NCCO)nc(N2CCOCC2)c1 [Example 1049, 6-(2-cyanopropan-2-yl)-N-(3-(2-((2-hydroxyethyl)amino)-6-morpholinopyridin-4-yl)-4-methylphenyl)pyridazine-4-carboxamide] | 7.69 nM |  | 
4 | CCn1cc(C(=O)Nc2cnc(C)c(-c3cc(NCCO)nc(N4CCOCC4)c3)c2)cc(C(F)(F)F)c1=O [Example 1044, 1-ethyl-N-(2′-((2-hydroxyethyl)amino)-2-methyl-6′-morpholino-[3,4′-bipyridin]-5-yl)-6-oxo-5-(trifluoromethyl)-1,6-dihydropyridine-3-carboxamide] | 30.6 nM |  | 
5 | Cc1ncc(NC(=O)c2cccc(C(F)(F)F)c2)cc1-c1cc(N2CCOCC2)c(=O)n(CCC#N)c1 [Example 333, N-(1′-(2-cyanoethyl)-2-methyl-5′-morpholino-6′-oxo-1′,6′-dihydro-[3,3′-bipyridin]-5-yl)-3-(trifluoromethyl)benzamide] |  |  | IC50 (Table 2, 3 hours reaction): 11.4 nM
6 | Cc1ccc(C(=O)Nc2cccc(C(F)(F)F)c2)cc1-c1cc(N2CCOCC2)n(C)c(=O)c1 [Example 517, 4-methyl-3-(1-methyl-6-morpholino-2-oxo-1,2-dihydropyridin-4-yl)-N-(3-(trifluoromethyl)phenyl)benzamide] |  | 1.2 nM | 
7 | Cc1ncc(NC(=O)c2ccnc(C3CC3)c2)cc1-c1cc(N2CCOCC2)c(=O)n(C)n1 [Example 682, 2-cyclopropyl-N-(6-methyl-5-(1-methyl-5-morpholino-6-oxo-1,6-dihydropyridazin-3-yl)pyridin-3-yl)isonicotinamide] |  | 6.9 nM | 
8 | Cc1ncc(NC(=O)c2cccc(C(F)(F)F)c2)cc1-c1cc(N2CCOCC2)nc(NCCO)n1 [Example 735, N-(5-(2-((2-hydroxyethyl)amino)-6-morpholinopyrimidin-4-yl)-6-methylpyridin-3-yl)-3-(trifluoromethyl)benzamide] |  | 4.3 nM | 
9 | Cc1ncc(NC(=O)c2cc(C(C)(F)F)ccn2)cc1-c1cnc(OCCO)c(N2CCOCC2)c1 [Example 974, 4-(1,1-difluoroethyl)-N-(6′-(2-hydroxyethoxy)-2-methyl-5-morpholino-[3,3′-bipyridin]-5-yl)picolinamide] | 2.78 nM |  | 
10 | Cc1ccc(NC(=O)c2ccnc(C(C)(C)O)c2)cc1-c1cc(N2CCOCC2)c(OC2CCOCC2)nn1 [Example 581, 2-(2-hydroxypropan-2-yl)-N-(4-methyl-3-(5-morpholino-6-((tetrahydro-2H-pyran-4-yl)oxy)pyridazin-3-yl)phenyl)isonicotinamide] |  | 2.2 nM | 
11 | Cc1ncc(NC(=O)c2cc(C3CC3)on2)cc1-c1cc(N2CCOCC2)nc(N2CC(O)C2)c1 [Example 1093, 5-cyclopropyl-N-(2′-(3-hydroxyazetidin-1-yl)-2-methyl-6′-morpholino-[3,4′-bipyridin]-5-yl)isoxazole-3-carboxamide] | 6.58 nM |  | 
12 | Cc1ccc(NC(=O)c2ccnc(C(F)(F)F)c2)cc1-c1cc(-c2c(C)n[nH]c2C)nc(N2CCOCC2)c1 [Example 1127, N-(3-(2-(3,5-dimethyl-1H-pyrazol-4-yl)-6-morpholinopyridin-4-yl)-4-methylphenyl)-2-(trifluoromethyl)isonicotinamide] | 1.48 nM |  | 
13 | Cc1cc(=O)c(C(=O)Nc2cccc(C(F)(F)F)c2)cn1-c1ccnc(N2CCOCC2)c1 [Example 1175, 6-methyl-2′-morpholino-4-oxo-N-(3-(trifluoromethyl)phenyl)-4H-[1,4′-bipyridine]-3-carboxamide] | 80 nM |  | 
14 | Cc1ccc(NC(=O)c2cccc(CC#N)c2)cc1-c1cc(N2CCOCC2)c(=O)n(C)c1 [Example 359, 3-(cyanomethyl)-N-(4-methyl-3-(1-methyl-5-morpholino-6-oxo-1,6-dihydropyridin-3-yl)phenyl)benzamide] |  |  | IC50 (Table 2, 3 hours reaction): 5.5 nM
15 | Cc1ncc(NC(=O)c2ccnc(C(F)(F)F)c2)cc1-c1cnc(Cl)c(N2CCOCC2)c1 [Example 291, N-(6′-chloro-2-methyl-5′-morpholino-[3,3′-bipyridin]-5-yl)-2-(trifluoromethyl)isonicotinamide] |  |  | IC50 (Table 2, 3 hours reaction): 2.3 nM
16 | CCNc1nc(-c2cc(NC(=O)c3ccnc(C4COC4)c3)cnc2C)cc(N2CCOCC2)n1 [Example 729, N-(5-(2-(ethylamino)-6-morpholinopyrimidin-4-yl)-6-methylpyridin-3-yl)-2-(oxetan-3-yl)isonicotinamide] |  | 17.7 nM | 
17 | Cc1ncc(NC(=O)c2ccnc(C(F)F)c2)cc1-c1cc(N2CCOCC2)c(=O)n(C)n1 [Example 680, 2-(difluoromethyl)-N-(6-methyl-5-(1-methyl-5-morpholino-6-oxo-1,6-dihydropyridazin-3-yl)pyridin-3-yl)isonicotinamide] |  | 14.6 nM | 
18 | Cc1ncc(NC(=O)c2ccnc(C(C)C)c2)cc1-c1cc(N2CCOCC2)c(=O)n(C)c1 [Example 400, N-(1′,2-dimethyl-5′-morpholino-6′-oxo-1′,6′-dihydro-[3,3′-bipyridin]-5-yl)-2-isopropylisonicotinamide] |  |  | IC50 (Table 2, 3 hours reaction): 35.1 nM
19 | Cc1ncc(NC(=O)c2ccnc(C(F)F)c2)cc1-c1cc(NCCO)nc(N2CCOC[C@H]2C)c1 [Example 1141, (R)-2-(difluoromethyl)-N-(2′-((2-hydroxyethyl)amino)-2-methyl-6′-(3-methylmorpholino)-[3,4′-bipyridin]-5-yl)isonicotinamide] | 15.7 nM |  | 
20 | Cc1ncc(NC(=O)c2ccnc(C(C)C)c2)cc1-c1cnc(OC2CCOCC2)c(N2CCOCC2)c1 [Example 313, 2-isopropyl-N-(2-methyl-5′-morpholino-6′-((tetrahydro-2H-pyran-4-yl)oxy)-[3,3′-bipyridin]-5-yl)isonicotinamide] |  |  | IC50 (Table 2, 3 hours reaction): 7 nM
21 | CCNc1nc(-c2cc(NC(=O)c3ccnc(C4(C#N)CC4)c3)cnc2C)cc(N2CCOCC2)n1 [Example 728, 2-(1-cyanocyclopropyl)-N-(5-(2-(ethylamino)-6-morpholinopyrimidin-4-yl)-6-methylpyridin-3-yl)isonicotinamide] |  | 4.4 nM | 
22 | CCn1c(N2CCOCC2)cc(-c2cc(NC(=O)c3ccnc(C(C)(F)F)c3)ccc2C)cc1=O [Example 519, 2-(1,1-difluoroethyl)-N-(3-(1-ethyl-6-morpholino-2-oxo-1,2-dihydropyridin-4-yl)-4-methylphenyl)isonicotinamide] |  | 0.6 nM | 
23 | CCC(F)(F)c1cc(C(=O)Nc2ccc(C)c(-c3cc(N4CCOCC4)c(=O)n(C)n3)c2)ccn1 [Example 643, 2-(1,1-difluoropropyl)-N-(4-methyl-3-(1-methyl-5-morpholino-6-oxo-1,6-dihydropyridazin-3-yl)phenyl)isonicotinamide] |  | 1.3 nM | 
24 | Cc1ncc(NC(=O)c2cccc(C(F)(F)F)c2)cc1-c1ccc(S(C)(=O)=O)c(N2CCOCC2)c1 [Example 687, N-(6-methyl-5-(4-(methylsulfonyl)-3-morpholinophenyl)pyridin-3-yl)-3-(trifluoromethyl)benzamide] |  | 0.8 nM | 
